In patent US11806359B2 (priority 2020, dated 2023):

Legend:
HSV-1 = details: cited from earlier work
HSV-2 = details: cited from earlier work
ENTV EV71 = details: cited from earlier work
ADV-3 = details: cited from earlier work
HEP C = details: cited from earlier work
HIV-1 = details: cited from earlier work
HCV H strain NS5B = details: cited from earlier work
ENTV CVB1 = details: cited from earlier work
HEP B = details: cited from earlier work
ADV-11 = details: cited from earlier work
ADV-8 = details: cited from earlier work
Dengue virus = details: Cheung et al. 2014; cited from earlier work
adenovirus = assay: Antiviral activity against adenovirus; format: cell-based
SARS-CoV-2 = format: cell-based; details: FIG. 32

C[C@H]1[C@H](C)CC[C@]2(C(=O)O)CC[C@]3(C)C(=CC[C@@H]4[C@@]5(C)CC[C@H](O)C(C)(C)[C@@H]5CC[C@]43C)[C@H]12 [Ursolic acid]
anti-viral activity against HSV-1 (HSV-1): some anti-viral activity | anti-viral activity against HSV-2 (HSV-2): some anti-viral activity | anti-viral activity against ENTV EV71 (ENTV EV71): some anti-viral activity | anti-viral activity against ADV-3 (ADV-3): some anti-viral activity | anti-viral activity against HEP C (HEP C): some anti-viral activity | anti-viral activity against HIV-1 (HIV-1): some anti-viral activity | anti-viral activity against HCV H strain NS5B (HCV H strain NS5B): some anti-viral activity | anti-viral activity against ENTV CVB1 (ENTV CVB1): some anti-viral activity | anti-viral activity against HEP B (HEP B): some anti-viral activity | anti-viral activity against ADV-11 (ADV-11): some anti-viral activity | anti-viral activity against ADV-8 (ADV-8): some anti-viral activity

CC(=O)O[C@H]1C[C@H](O[C@H]2[C@@H](O)C[C@H](O[C@H]3[C@@H](O)C[C@H](O[C@H]4CC[C@@]5(C)[C@H](CC[C@@H]6[C@@H]5C[C@@H](O)[C@]5(C)[C@@H](C7=CC(=O)OC7)CC[C@]65O)C4)O[C@@H]3C)O[C@@H]2C)O[C@H](C)[C@H]1O[C@@H]1O[C@H](CO)[C@@H](O)[C@H](O)[C@H]1O [lanatoside C]
antiviral activity against Dengue virus (Dengue virus): demonstrates antiviral activity against Dengue virus

CC1(C)CC[C@]2(C(=O)O)CC[C@]3(C)C(=CC[C@@H]4[C@@]5(C)CC[C@H](O)C(C)(C)[C@@H]5CC[C@]43C)[C@@H]2C1 [Oleanolic acid]
anti-viral activity against HEP C (HEP C): some anti-viral activity | anti-viral activity against HIV-1 (HIV-1): some anti-viral activity | anti-viral activity against HCV H strain NS5B (HCV H strain NS5B): some anti-viral activity

C[C@H]1O[C@@H](O[C@H]2[C@@H](O)C[C@H](O[C@H]3[C@@H](O)C[C@H](O[C@H]4CC[C@@]5(C)[C@H](CC[C@@H]6[C@@H]5C[C@@H](O)[C@]5(C)[C@@H](C7=CC(=O)OC7)CC[C@]65O)C4)O[C@@H]3C)O[C@@H]2C)C[C@H](O)[C@@H]1O [digoxin, reference compound]
activity against adenovirus (adenovirus): inactive | inhibition of viral replication (SARS-CoV-2): efficacy of digoxin against the virus
